# Biological target: human BTK (Homo sapiens (Human), UniProt Q06187)
# Assay: BTK inhibition assay (phosphorylation of 5-FAM-labeled substrate, Caliper LC-3000)
# Format: biochemical
# Conditions: residues 382 to 659 of human BTK; 60 minutes at room temperature
# Description: The activity of compound of Formula 1, stereoisomer thereof, or tautomers of the compound as Formula 1 or stereoisomer thereof, as BTK inhibitors may be determined by a variety of methods, including in vitro and in vivo methods. The following in vitro assay measures a test compound's ability to inhibit BTK-mediated phosphorylation of a FAM-labeled substrate, 5-FAM-[…]-NH2.
# Purified BTK may be obtained as follows (Clone SBVC-1603_9P is used). A cDNA sequence encoding residues 382 to 659 of human BTK is cloned into the vector pSXB4. This construct engineers an in-frame translational fusion with the Glutathione-S-Transferase (GST) protein for use in affinity purification. The fusion protein derived from this construct contains a protease recognition sequence to liberate the BTK from the GST affinity tag. High-titer baculoviral stocks, generated using the Bac-to-Bac® system (Invitrogen), are used to express the recombinant protein in Spodoptera frugiperda Sf9 cells in 10 L Wave bags. Recombinant proteins are isolated from cellular extracts by passage over Glutathione Sepharose 4B (GE Healthcare) and the BTK moiety is released from the GST affinity tag by treatment with PreScission protease. […] The purity of the fractions is assessed by SDS PAGE and the peak protein fractions are pooled and concentrated using Amicon Ultra-15 Centrifugal Filter Devices (Millipore).
# Sequence of human BTK (Q06187 382-659): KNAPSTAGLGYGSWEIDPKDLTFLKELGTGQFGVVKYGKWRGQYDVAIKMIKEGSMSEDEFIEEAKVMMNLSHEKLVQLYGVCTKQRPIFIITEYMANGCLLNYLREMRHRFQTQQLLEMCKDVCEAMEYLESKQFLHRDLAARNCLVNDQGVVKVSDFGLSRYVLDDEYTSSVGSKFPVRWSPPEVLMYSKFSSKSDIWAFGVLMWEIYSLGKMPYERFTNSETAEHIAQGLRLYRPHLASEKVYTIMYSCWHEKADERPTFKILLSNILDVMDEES
smiles,measurement,value
"C=CC(=O)N1CC[C@H](Oc2nc(-c3n[nH]c(=O)[nH]3)cc3ccccc23)C1 [Example 1, (S)-3-(1-((1-acryloylpyrrolidin-3-yl)oxy)isoquinolin-3-yl)-1H-1,2,4-triazol-5(4H)-one]",BTK Inhibition (pIC50),>8.7
